Data as given in publication PMC10222987 (Viruses, 2023).
Like-named read-outs stand apart in the source and are kept apart here.

Key:
[1] = hamster, in vivo, sc
[2] = tested on: H1N1 (rgA/WSN/33) WT; conditions: cited from earlier work
[3] = tested on: H1N1pdm09.WT; conditions: mouse, in vivo
[4] = BALB/c, mouse, in vivo; for C24 (plasma concentration at 24 h): sc
[5] = tested on: H1N1pdm09 (A/Osaka/129/2009) WT; assay: microbe, parasite or virus in culture; format: cell-based; conditions: Influenza A virus, read-out: EC50 Mean
[6] = tested on: H3N2 (rgA/Victoria/3/75) WT; conditions: cited from earlier work
[7] = tested on: H1N1 (rgA/WSN/33) WT; conditions: cited from earlier work; remark: listed apart in the source
[8] = tested on: H3N2 (rgA/Victoria/3/75) WT; conditions: cited from earlier work; remark: listed apart in the source

For `O=C1c2c(O)c(=O)ccn2N([C@@H]2c3ccccc3SCc3c2ccc(F)c3F)[C@@H]2COCCN12` [baloxavir acid], the “C24 (plasma concentration at 24 h)” value ([1]; 10 mg/kg) is listed as 17.3 ± 3.3 ng/mL, the “C24 (plasma concentration at 24 h)” value ([1]; 30 mg/kg) is listed as 45.7 ± 19.7 ng/mL and the EC50 [2] is listed as 0.42 nM. The Lung virus titer [3] was “almost to the LLOQ”, the “C24 of a simulated dose” value [4] was 78.3 ng/mL and the “C24 (plasma concentration at 24 h)” value ([4]; 20 mg/kg) was 47.4 ± 4.9 ng/mL. The “C24 (plasma concentration at 24 h)” value ([4]; 30 mg/kg) was 70.8 ± 13.9 ng/mL, the EC50 [5] was 0.61 nM and the EC50 [6] was 1.13 nM.

In the case of `CCC(CC)O[C@@H]1C=C(C(=O)O)C[C@H](N)[C@H]1NC(C)=O` [oseltamivir acid], the IC50 [7] is listed as 0.8 nM and the IC50 [8] is listed as 0.13 nM.

In the case of `CCOC(=O)C1=C[C@@H](OC(CC)CC)[C@H](NC(C)=O)[C@@H](N)C1` [oseltamivir phosphate], the “Lung virus titers vs vehicle” value [3] is reported as “statistically lower compared with vehicle”.
